# From patent US20260325605A1, “INHIBITORS” (Zealand Pharma A/S, priority 2022, published 2026)
# Key:
# Kv1.2 = biological target: T1, Kv1.2 (Homo sapiens, UniProt P16389); assay: Patch clamp assay (QPatch), Kv1.2; format: cell-based
# T1 construct: expressed in transfected cells
# [1] = tested on: KLH-induced DTH ear swelling in rats; assay: Example 10: Maximal effective dose in KLH-induced DTH model; format: in vivo, rat (Lewis)
# Experimental: Healthy male Lewis rats aged 8-9 weeks were immunized on day 0 with 200 μL keyhole limpet hemocyanin (KLH) (from Sigma, cat.no. H7017) (4 mg/mL) emulsified in complete Freund's adjuvant (CFA) (Difco, cat.no. 263810) subcutaneously (SC) at the base of the tail.
# To elicit a KLH-specific T cell-mediated local inflammation, rats were challenged intradermally at indicated timepoints (days 7, 9, 11 or 13 post-immunisation) with 40 μL KLH/NaCl 0.9% (2 mg/mL) in the left ear. Ear edemas were measured after 24-48 hrs and the right ear that was left untreated served as control. A schematic overview of the protocol is depicted in FIG. 1. […]
# This study was conducted as described in example 8 with the difference that the rats were only challenged intradermally at days 7 or 11 post-immunisation (i.e. day 1 and day 5 after treatment) with 40 μL KLH/NaCl 0.9% (2 mg/mL) in the left ear. A schematic overview of the protocol is depicted in FIG. 5.
# The doses of Kv1.3 inhibitor treatment able to reduce the DTH ear swelling response was investigated by comparing the response in rats (n=8/group) treated with vehicle to that of rats treated with different doses of peptide 100. Vehicle or peptide 100 dissolved in vehicle was administered SC (2 mL/kg) on day 6 post-immunisation. The test dose of Kv1.3 inhibitor was 10, 100, 300 or 700 nmol/kg. Test vehicle was 10 mM phosphate, 0.8% w/v NaCl, 0.05% w/v polysorbate20, pH 6.
# As readout of efficacy, the thickness of the induced ear 24 hrs and 48 hrs after respective ear challenge was measured and compared to vehicle control. Ear thickness 24 hrs after challenge is shown in Table 13 and FIG. 6 and ear thickness 48 hrs after challenge is shown in Table 14 and FIG. 7.
# [2] = tested on: T-cell activation in rat whole blood; assay: Example 4: IL-17A release in thapsigargin stimulated rat whole blood; format: cell-based, rat (Lewis or Sprague-Dawley); conditions: 24 Hr, at least 2 replicates, unit inferred, read-out: IC50 (inhibition of IL-17A release)
# Method in brief: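 Heparinised whole blood from naïve Lewis or Sprague-Dawley rats preincubated ≥5 min at RT with peptide, then stimulated with thapsigargin (40 μM stock added as one quarter of well volume) for 24 h at 37 °C. Supernatant IL-17A measured by ELISA; IC50 from curves normalised to stimulated and unstimulated controls, ≥2 replicates.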
# [3] = Example 6: Pharmacokinetic characterisation after s.c. administration; format: in vivo, rat (Sprague Dawley or Wistar); conditions: rat, 70 nmol/kg
# Experimental: Sprague Dawley or Wistar rats (males with a body weight of approximately 250-350 g) were given a single subcutaneous (s.c.) injection of each peptide to be tested.
# Following s.c. administration of the selected peptides (dose 70 nmol/kg, dosing volume either 2 or 5 mL/kg), blood samples were drawn at 15 min, 30 min, 45 min, 60 min, 90 min, 2 h, 3 h, 4 h post-dose. At each sampling time point, samples from the rats were drawn by sublingual bleeding or by tail cut. After last sampling the rats were sacrificed by O2/CO2 anaesthesia. The dosing vehicle was 10 mM phosphate, 0.8% NaCl, 0.05% Polysorbate 20 (pH 6.0).
# Plasma samples were analyzed after solid phase extraction (SPE) by liquid chromatography mass spectrometry (LC-MS/MS). Mean plasma concentrations were used for calculation of the pharmacokinetic parameters using the non-compartmental approach in Phoenix WinNonlin 6.4 or a later version. […]. AUCinf is the area under the plasma concentration−time curve extrapolated to infinity (AUCinf=AUClast+Clast/λz, where Clast is the last observed plasma concentration). Cmax is the maximum observed concentration, occurring at Tmax.
# T1 sequence (P16389 whole entry): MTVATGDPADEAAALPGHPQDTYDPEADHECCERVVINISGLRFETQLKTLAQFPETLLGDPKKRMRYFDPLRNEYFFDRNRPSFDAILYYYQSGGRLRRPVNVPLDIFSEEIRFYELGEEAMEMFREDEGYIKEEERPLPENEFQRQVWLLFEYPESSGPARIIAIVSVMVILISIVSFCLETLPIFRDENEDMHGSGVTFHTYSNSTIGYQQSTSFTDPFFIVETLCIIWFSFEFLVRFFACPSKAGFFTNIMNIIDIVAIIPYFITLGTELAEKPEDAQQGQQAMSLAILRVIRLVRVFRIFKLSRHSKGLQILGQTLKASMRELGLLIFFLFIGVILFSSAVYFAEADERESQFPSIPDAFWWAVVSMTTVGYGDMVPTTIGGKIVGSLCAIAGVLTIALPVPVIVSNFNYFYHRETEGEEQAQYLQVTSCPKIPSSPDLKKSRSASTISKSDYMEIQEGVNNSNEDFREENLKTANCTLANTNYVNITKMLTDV
substance,measurement,setting,value
H-P[Nle]E[Nle]RC(1)SASVEC(2)KQKC(3)LAAIGSIFGKC(1)[Nle]NKKC(2)KC(3)YPR-OH [Peptide 100],IC50,"Kv1.2; QPatch, CHO cells stably expressing human Kv1.2, read-out: Potency IC50, Kv1.2",1120 nM
same,Selectivity Kv1.2/Kv1.3,Kv1.2; ratio of IC50 Kv1.2/Kv1.3,3384
same,Mean ear thickness of KLH-induced ear,"[1]; 10 nmol/kg s.c., challenge day 11, 24 hrs post-challenge, vehicle 0.848, p=0.0495",0.807±0.025 mm
same,Mean ear thickness of KLH-induced ear,"[1]; 10 nmol/kg s.c., challenge day 11, 48 hrs post-challenge, vehicle 0.819, p=0.0009",0.761±0.025 mm
same,Mean ear thickness of KLH-induced ear,"[1]; 100 nmol/kg s.c., challenge day 11, 24 hrs post-challenge, vehicle 0.848, p=0.0015",0.777±0.019 mm
same,Mean ear thickness of KLH-induced ear,"[1]; 100 nmol/kg s.c., challenge day 11, 48 hrs post-challenge, vehicle 0.819, p<0.0001",0.713±0.034 mm
same,Mean ear thickness of KLH-induced ear,"[1]; 300 nmol/kg s.c., challenge day 11, 24 hrs post-challenge, vehicle 0.848, p=0.0005",0.772±0.009 mm
same,Mean ear thickness of KLH-induced ear,"[1]; 300 nmol/kg s.c., challenge day 11, 48 hrs post-challenge, vehicle 0.819, p<0.0001",0.684±0.016 mm
same,Mean ear thickness of KLH-induced ear,"[1]; 700 nmol/kg s.c., challenge day 11, 24 hrs post-challenge, vehicle 0.848, p=0.0007",0.771±0.018 mm
same,Mean ear thickness of KLH-induced ear,"[1]; 700 nmol/kg s.c., challenge day 11, 48 hrs post-challenge, vehicle 0.819, p<0.0001",0.671±0.011 mm
same,Mean ear thickness of KLH-induced ear,"[1]; 24 hrs post-challenge, day 2 post-treatment, 100 nmol/kg SC",0.704 mm
same,Mean ear thickness of KLH-induced ear,"[1]; 24 hrs post-challenge, day 6 post-treatment, 10 nmol/kg SC",0.807 mm
same,Mean ear thickness of KLH-induced ear,"[1]; 24 hrs post-challenge, day 6 post-treatment, 100 nmol/kg SC",0.777 mm
same,Mean ear thickness of KLH-induced ear,"[1]; 24 hrs post-challenge, day 6 post-treatment, 300 nmol/kg SC",0.772 mm
same,Mean ear thickness of KLH-induced ear,"[1]; 24 hrs post-challenge, day 6 post-treatment, 700 nmol/kg SC",0.771 mm
same,Mean ear thickness of KLH-induced ear,"[1]; 48 hrs post-challenge, day 3 post-treatment, 100 nmol/kg SC",0.652 mm
same,Mean ear thickness of KLH-induced ear,"[1]; 48 hrs post-challenge, day 7 post-treatment, 10 nmol/kg SC",0.761 mm
same,Mean ear thickness of KLH-induced ear,"[1]; 48 hrs post-challenge, day 7 post-treatment, 100 nmol/kg SC",0.713 mm
same,Mean ear thickness of KLH-induced ear,"[1]; 48 hrs post-challenge, day 7 post-treatment, 300 nmol/kg SC",0.684 mm
same,Mean ear thickness of KLH-induced ear,"[1]; 48 hrs post-challenge, day 7 post-treatment, 700 nmol/kg SC",0.671 mm
same,dose with which a maximal effect is obtained,"[1]; KLH-induced DTH model, s.c.",300 nmol/kg
same,Mean ear thickness of KLH-induced ear,"[1]; s.c. day 6, dose not given, challenge day 7, 24 hrs post-challenge, vehicle 0.721, p=0.1216",0.704±0.018 mm
same,Mean ear thickness of KLH-induced ear,"[1]; s.c. day 6, dose not given, challenge day 7, 48 hrs post-challenge, vehicle 0.694, p=0.0008",0.652±0.026 mm
same,IC50,[2],0.43 nM
same,AUCINF,[3]; plasma,0.112 µM·h
same,Cmax,[3]; plasma,52.6 nM
same,T1/2,[3]; plasma terminal elimination half-life,1.04 h
